Structures are written as SMILES. Read-outs that look alike come from different tables or passages of the source.

Among the targets are GPRK5 (Homo sapiens, UniProt P34947); SRC (Homo sapiens, UniProt P12931); CK2a2 (Homo sapiens, UniProt P19784); CaMK2d (Homo sapiens, UniProt Q13557); TAF1 (Homo sapiens, UniProt P21675).
Assay in all cases: biochemical
The next experiment has as its target T1, DCAMKL1 (Homo sapiens, UniProt O15075).
T1 sequence (O15075 1-740): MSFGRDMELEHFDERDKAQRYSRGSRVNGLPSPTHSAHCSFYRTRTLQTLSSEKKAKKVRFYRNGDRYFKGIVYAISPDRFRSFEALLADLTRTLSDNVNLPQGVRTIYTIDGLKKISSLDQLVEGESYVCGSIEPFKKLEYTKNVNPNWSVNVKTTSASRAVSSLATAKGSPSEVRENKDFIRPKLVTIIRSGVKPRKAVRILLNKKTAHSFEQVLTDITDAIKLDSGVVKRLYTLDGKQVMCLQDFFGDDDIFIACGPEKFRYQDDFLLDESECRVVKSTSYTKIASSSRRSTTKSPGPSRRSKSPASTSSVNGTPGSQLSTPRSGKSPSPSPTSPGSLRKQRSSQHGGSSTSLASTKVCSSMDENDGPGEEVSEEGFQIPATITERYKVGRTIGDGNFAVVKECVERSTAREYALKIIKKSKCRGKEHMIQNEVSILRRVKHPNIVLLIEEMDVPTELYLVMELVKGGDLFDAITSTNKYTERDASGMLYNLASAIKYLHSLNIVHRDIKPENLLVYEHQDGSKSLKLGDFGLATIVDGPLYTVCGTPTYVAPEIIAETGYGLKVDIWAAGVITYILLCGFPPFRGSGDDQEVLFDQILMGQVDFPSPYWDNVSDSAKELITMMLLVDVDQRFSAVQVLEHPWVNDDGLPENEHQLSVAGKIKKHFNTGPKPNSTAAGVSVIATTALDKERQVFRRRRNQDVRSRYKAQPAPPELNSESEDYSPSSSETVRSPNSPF

A further experiment concerns the target T2, CASK (Homo sapiens, UniProt O14936).
T2 sequence (O14936 1-926): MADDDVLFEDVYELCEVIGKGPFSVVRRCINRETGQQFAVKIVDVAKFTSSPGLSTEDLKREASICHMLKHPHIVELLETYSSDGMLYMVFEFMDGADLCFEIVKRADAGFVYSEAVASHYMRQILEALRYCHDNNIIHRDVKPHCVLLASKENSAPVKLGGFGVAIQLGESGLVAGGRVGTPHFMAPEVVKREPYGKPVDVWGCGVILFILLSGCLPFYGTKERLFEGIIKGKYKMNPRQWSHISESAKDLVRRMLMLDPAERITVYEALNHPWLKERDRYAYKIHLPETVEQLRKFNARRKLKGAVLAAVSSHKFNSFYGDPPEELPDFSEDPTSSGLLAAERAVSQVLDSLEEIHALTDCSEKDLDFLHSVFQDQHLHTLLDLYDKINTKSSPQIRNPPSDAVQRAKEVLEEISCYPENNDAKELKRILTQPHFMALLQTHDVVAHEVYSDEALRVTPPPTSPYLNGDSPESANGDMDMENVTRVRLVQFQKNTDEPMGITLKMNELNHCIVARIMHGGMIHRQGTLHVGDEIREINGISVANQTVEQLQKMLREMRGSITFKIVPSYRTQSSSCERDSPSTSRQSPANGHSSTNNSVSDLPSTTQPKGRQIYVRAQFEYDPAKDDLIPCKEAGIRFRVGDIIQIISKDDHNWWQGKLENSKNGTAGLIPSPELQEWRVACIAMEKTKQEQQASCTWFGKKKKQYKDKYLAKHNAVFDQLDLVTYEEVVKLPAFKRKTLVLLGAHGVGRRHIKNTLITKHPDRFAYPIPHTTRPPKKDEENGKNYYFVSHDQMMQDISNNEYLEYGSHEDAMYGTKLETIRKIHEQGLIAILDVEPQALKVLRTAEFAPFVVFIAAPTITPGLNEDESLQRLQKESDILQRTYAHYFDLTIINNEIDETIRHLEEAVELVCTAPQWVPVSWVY

The target of a further experiment is T3, MARK4 (Homo sapiens, UniProt Q96L34).
T3 sequence (Q96L34 1-752): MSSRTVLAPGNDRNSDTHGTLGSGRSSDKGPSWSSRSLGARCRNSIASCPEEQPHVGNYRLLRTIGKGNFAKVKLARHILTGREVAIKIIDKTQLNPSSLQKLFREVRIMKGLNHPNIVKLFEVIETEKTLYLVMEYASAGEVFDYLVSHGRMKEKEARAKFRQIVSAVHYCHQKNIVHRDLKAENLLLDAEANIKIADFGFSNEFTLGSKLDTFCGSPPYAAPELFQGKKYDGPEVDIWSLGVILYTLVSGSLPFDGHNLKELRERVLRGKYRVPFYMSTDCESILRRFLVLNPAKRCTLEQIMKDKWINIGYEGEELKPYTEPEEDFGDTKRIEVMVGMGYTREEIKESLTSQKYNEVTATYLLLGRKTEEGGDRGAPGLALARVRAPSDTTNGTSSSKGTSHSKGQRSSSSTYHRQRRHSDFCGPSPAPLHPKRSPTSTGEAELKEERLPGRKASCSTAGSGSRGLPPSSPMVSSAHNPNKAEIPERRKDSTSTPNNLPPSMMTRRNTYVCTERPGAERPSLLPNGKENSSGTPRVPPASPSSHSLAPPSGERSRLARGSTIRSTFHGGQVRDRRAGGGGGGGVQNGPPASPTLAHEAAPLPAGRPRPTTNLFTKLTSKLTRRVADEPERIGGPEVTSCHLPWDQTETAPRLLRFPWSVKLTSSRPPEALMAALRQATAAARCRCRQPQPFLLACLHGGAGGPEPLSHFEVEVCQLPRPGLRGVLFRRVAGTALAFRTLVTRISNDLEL

Chain of SRC (P12931 whole entry): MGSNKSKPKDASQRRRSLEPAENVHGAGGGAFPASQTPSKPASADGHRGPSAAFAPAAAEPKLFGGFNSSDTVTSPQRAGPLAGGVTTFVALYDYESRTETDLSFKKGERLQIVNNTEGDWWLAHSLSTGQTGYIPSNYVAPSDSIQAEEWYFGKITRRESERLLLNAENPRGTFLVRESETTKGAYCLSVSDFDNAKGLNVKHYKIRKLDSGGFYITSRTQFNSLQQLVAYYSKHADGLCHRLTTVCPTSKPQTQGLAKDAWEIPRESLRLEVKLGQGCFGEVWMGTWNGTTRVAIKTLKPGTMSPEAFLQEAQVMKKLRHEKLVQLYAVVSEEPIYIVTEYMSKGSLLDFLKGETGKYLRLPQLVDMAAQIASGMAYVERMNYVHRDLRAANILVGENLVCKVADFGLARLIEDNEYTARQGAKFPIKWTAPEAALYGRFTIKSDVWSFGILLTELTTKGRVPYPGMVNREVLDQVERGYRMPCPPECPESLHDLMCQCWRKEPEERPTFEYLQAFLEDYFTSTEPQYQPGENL
Chain of CaMK2d (Q13557 whole entry): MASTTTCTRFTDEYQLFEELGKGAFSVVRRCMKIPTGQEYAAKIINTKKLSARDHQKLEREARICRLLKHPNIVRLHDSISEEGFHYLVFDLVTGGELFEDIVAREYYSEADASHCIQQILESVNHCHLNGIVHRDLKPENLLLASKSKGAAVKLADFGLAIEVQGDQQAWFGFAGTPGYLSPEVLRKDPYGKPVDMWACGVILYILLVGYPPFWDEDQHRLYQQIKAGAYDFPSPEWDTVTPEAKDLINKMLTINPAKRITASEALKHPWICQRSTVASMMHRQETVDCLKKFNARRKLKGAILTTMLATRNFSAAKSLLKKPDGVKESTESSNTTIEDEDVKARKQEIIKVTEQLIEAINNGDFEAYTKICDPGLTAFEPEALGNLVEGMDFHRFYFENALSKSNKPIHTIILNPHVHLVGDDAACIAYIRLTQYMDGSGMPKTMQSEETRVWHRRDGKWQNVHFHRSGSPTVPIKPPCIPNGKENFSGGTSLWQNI
Chain of GPRK5 (P34947 whole entry): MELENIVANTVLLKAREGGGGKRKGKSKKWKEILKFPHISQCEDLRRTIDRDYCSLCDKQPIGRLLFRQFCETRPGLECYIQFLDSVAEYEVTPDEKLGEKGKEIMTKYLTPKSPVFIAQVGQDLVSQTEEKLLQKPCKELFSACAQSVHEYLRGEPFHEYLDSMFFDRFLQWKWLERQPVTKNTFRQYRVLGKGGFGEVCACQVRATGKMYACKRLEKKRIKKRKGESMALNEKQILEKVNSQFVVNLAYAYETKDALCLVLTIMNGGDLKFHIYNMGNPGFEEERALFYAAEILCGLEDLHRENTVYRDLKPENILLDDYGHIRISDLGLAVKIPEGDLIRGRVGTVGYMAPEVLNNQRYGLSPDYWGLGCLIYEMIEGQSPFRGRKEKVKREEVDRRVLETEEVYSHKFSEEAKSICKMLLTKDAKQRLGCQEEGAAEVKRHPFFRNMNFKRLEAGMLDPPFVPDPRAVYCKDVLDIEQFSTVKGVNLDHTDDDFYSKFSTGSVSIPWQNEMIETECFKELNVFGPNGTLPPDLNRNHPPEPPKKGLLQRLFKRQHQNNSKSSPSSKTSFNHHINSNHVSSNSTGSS
Chain of TAF1 (P21675 whole entry): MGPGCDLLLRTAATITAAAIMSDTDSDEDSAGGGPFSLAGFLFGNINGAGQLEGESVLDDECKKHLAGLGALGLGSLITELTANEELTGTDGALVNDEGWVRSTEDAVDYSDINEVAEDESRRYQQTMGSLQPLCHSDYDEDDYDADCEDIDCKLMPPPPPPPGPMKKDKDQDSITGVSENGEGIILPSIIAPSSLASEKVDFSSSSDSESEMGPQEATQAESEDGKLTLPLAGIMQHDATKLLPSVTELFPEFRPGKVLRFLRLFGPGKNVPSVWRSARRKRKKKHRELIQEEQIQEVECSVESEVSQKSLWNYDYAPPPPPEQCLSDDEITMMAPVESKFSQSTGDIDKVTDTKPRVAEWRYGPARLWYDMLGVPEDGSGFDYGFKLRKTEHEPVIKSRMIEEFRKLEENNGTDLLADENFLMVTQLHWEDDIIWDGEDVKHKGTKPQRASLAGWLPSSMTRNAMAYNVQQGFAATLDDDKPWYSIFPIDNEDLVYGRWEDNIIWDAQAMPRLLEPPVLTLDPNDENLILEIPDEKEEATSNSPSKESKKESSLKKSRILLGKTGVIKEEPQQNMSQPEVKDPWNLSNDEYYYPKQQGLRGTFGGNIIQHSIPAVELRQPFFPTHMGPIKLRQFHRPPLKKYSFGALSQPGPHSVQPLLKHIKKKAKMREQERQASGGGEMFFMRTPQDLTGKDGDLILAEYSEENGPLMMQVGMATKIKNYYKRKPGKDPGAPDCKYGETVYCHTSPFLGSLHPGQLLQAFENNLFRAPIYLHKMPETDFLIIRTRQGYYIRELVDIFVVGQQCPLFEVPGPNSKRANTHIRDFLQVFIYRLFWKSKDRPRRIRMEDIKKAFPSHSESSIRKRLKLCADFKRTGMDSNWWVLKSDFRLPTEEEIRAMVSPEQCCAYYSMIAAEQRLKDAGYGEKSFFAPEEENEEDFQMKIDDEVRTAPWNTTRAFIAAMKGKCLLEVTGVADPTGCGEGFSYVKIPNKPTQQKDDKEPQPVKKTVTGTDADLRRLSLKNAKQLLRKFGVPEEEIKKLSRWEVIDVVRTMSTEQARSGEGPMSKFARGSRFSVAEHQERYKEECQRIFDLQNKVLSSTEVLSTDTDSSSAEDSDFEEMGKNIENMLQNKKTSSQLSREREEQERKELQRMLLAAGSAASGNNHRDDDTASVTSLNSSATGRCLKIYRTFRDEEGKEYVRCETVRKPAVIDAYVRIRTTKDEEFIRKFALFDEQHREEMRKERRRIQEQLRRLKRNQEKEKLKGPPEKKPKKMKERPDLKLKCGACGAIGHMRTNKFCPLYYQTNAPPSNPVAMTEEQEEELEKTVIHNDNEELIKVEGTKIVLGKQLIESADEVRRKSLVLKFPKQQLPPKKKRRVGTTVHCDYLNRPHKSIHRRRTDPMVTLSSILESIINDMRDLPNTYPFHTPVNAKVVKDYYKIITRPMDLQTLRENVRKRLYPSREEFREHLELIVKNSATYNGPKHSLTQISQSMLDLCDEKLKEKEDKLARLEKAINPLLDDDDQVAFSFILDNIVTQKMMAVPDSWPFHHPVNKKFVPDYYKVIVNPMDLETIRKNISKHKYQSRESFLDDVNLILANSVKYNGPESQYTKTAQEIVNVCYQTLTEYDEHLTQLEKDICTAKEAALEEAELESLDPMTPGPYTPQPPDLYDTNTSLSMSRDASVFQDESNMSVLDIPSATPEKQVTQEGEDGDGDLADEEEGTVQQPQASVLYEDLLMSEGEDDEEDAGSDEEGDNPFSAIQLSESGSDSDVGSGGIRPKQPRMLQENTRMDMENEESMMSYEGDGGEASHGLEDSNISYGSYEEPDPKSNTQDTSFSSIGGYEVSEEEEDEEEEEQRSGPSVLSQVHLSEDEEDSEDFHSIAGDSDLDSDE
Chain of CK2a2 (P19784 whole entry): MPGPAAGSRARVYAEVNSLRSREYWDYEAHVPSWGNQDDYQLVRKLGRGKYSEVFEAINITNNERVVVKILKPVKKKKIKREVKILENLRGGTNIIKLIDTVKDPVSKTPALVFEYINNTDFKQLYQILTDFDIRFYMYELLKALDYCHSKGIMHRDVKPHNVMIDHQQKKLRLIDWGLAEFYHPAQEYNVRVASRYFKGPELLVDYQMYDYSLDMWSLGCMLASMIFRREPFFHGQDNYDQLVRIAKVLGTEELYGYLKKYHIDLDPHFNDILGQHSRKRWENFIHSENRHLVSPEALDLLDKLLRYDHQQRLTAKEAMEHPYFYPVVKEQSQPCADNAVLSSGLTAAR

Regarding `CNc1ncc2cc(-c3ccc(-c4cccc(C)n4)cc3Cl)c(=O)n(CC3OCC(N)CO3)c2n1` (centres unmarked) [compound 2, G-5555], the “dTm G-5555 (2)” value at DCAMKL1 (10 µM, binder) is 0.3 °C; on GPRK5 (10 µM, binder) it was -0.2 °C; on SRC (10 µM, binder), -0.2 °C; at CASK (10 µM, binder), -0.8 °C; on CK2a2 (10 µM, binder), -0.6 °C; at CaMK2d (10 µM, binder), -0.1 °C. In addition, the “dTm G-5555 (2)” value at MARK4 (10 µM, binder) came out at 7.7 °C.
For the compound `CNc1ncc2cc(-c3cc(Br)ccc3Cl)c(=O)n(C[C@H]3OC[C@H](N)CO3)c2n1` [compound 7, 8-(((2r,5r)-5-Amino-1,3-dioxan-2-yl)methyl)-6-(5-bromo-2-chlorophenyl)-2-(methylamino)pyrido[2,3-d]pyrimidin-7(8H)-one], the ΔTm at 10 µM on DCAMKL1 (read-out: dTm 7) was 1 °C; at GPRK5 (read-out: dTm 7), 0.2 °C; at SRC (read-out: dTm 7) it was 0.1 °C; on CASK (read-out: dTm 7) it was -0.1 °C; on CK2a2 (read-out: dTm 7), 0.1 °C; at CaMK2d (read-out: dTm 7) it was 0.4 °C. For the same compound, the ΔTm at 10 µM is 0.8 °C at MARK4 (read-out: dTm 7) and -0.8 °C at TAF1 (read-out: dTm 7).
For the compound `CNc1ncc2cc(-c3cc(Br)ccc3Cl)c(=O)n(CCCCN)c2n1` [compound 6, 8-(4-Aminobutyl)-6-(5-bromo-2-chlorophenyl)-2-(methylamino)pyrido[2,3-d]pyrimidin-7(8H)-one], the ΔTm at 10 µM on DCAMKL1 (read-out: dTm 6) was -0.5 °C; on GPRK5 (read-out: dTm 6) it was 0 °C; on SRC (read-out: dTm 6) it was 0.2 °C; at CASK (read-out: dTm 6), -0.3 °C; on CK2a2 (read-out: dTm 6), -0.1 °C; at CaMK2d (read-out: dTm 6) it was 0 °C. In addition, the ΔTm at 10 µM on MARK4 (read-out: dTm 6) was 1.7 °C; on TAF1 (read-out: dTm 6), -0.6 °C.
For `CNc1ncc2cc(-c3ccccc3Cl)c(=O)n(CCCCN)c2n1` [compound 4, 8-(4-Aminobutyl)-6-(2-chlorophenyl)-2-(methylamino)pyrido[2,3-d]pyrimidin-7(8H)-one], the ΔTm at 10 µM on DCAMKL1 (read-out: dTm MR21 (4)) is 0.2 °C; at GPRK5 (read-out: dTm MR21 (4)), -1.2 °C; on SRC (read-out: dTm MR21 (4)), 2.6 °C; on CASK (read-out: dTm MR21 (4)) it was 0 °C; on CK2a2 (read-out: dTm MR21 (4)), -0.3 °C; on CaMK2d (read-out: dTm MR21 (4)), 0 °C. Further, the values for the ΔTm at 10 µM on MARK4 (read-out: dTm MR21 (4)) and at TAF1 (read-out: dTm MR21 (4)) were 3 °C and -0.1 °C, respectively.
Consider `CNc1ncc2cc(-c3cc(F)ccc3F)c(=O)n(CCCCN)c2n1` [compound 5, 8-(4-Aminobutyl)-6-(2,5-difluorophenyl)-2-(methylamino)pyrido[2,3-d]pyrimidin-7(8H)-one], for which the ΔTm at 10 µM was -0.6 °C on GPRK5 (read-out: dTm MR22 (5)); 0.7 °C on SRC (read-out: dTm MR22 (5)); -0.4 °C at CASK (read-out: dTm MR22 (5)); -1 °C on CK2a2 (read-out: dTm MR22 (5)); -0.6 °C at CaMK2d (read-out: dTm MR22 (5)); 0 °C at MARK4 (read-out: dTm MR22 (5)). Further, the ΔTm at 10 µM on TAF1 (read-out: dTm MR22 (5)) came to 0.2 °C.

These data come from article doi:10.1101/2023.03.24.534094v2 (biorxiv, 2023).
